The values below come from patent publication US20250206718A1, “NITROGEN-CONTAINING HETEROCYCLIC DERIVATIVE INHIBITOR, PREPARATION METHOD THEREFOR AND USE THEREOF” (SHANGHAI HANSOH BIOMEDICAL CO., LTD., priority 2022, published 2025).

Structures are written as SMILES.

Series [1] deals with Ba/F3 EGFR Del19/T790M/C797S cells (Homo sapiens, UniProt P00533, T790M/C797S, cells depend on it, form not given). As to the kind of experiment: Cell proliferation inhibition (Cell Titer-Glo), Ba/F3 EGFR Del19/T790M/C797S. The series is classed as cell-based, mouse. As to conditions: 72 hours, CellTiter-Glo, read-out: Ba/F3 EGFR Del19_T790M_C797S IC50. The text has this:
(§1) Experimental objective: The objective of this test example is to test the inhibitory activity of compounds on the proliferation of different EGFR C797S drug-resistant mutant cell lines Ba/F3 EGFR Del19/T790M/C797S, Ba/F3 EGFR L858R/T790M/C797S, and Ba/F3 EGFR Del19/C797S.
(§2) • Ba/F3 EGFR Del19/T790M/C797S cells were purchased from KYinno Biotechnology Co., Ltd.; • Ba/F3 EGFR Del19/C797S cells were purchased from CoBioer Biosciences Co., Ltd.; • Ba/F3 EGFR L858R/T790M/C797S cells were purchased from CoBioer Biosciences Co., Ltd.; • Cell Titer-Glo was purchased from Promega, with a catalog number of G7573; • RPMI 1640 was purchased from Gibco, with a catalog number of 22400089; • FBS was purchased from Gibco, with a catalog number of 10091148; • cell culture plates were purchased from Corning, with a catalog number of 3610.
(§3) The inhibitory activity of the compound on the proliferation of different EGFR C797S drug-resistant mutant cell lines was detected using the Cell Titer-Glo method. The different cell lines were cultured in RPMI 1640 complete culture medium containing 10% FBS under conditions of 37° C. and 5% CO2, the cells were collected by centrifugation when growing to a certain density, and adjusted to appropriate cell density after counting, the cells were spread on a white 96-well plate at 90 μL/well, and cultured in a 37° C., 5% CO2 incubator overnight, prepared compound solutions of different concentrations were added at 10 μL/well, corresponding solvent controls were set, and all wells were cultured in a 37° C., 5% CO2 incubator for 72 hours, 50 μL of CellTiter-Glo solution was added to each well, shook and mixed evenly, and incubated in the dark for 10 minutes, and a BioTek Synergy H1 microplate reader was used for reading.
(§4) The luminescence signal value was used to calculate the inhibition rate. Graphpad Prism software was used to fit the concentration and inhibition rate to a nonlinear regression curve, so as to obtain the IC50 value, as shown in the Table below for details.
On the technique in general: ATP-based viability assays read luminescence as a measure of living cells.

Series [2] addresses Ba/F3 EGFR L858R/T790M/C797S cells (Homo sapiens, UniProt P00533, T790M/C797S/L858R, cells depend on it). As to the kind of experiment: Cell proliferation inhibition (Cell Titer-Glo), Ba/F3 EGFR L858R/T790M/C797S. The series is classed as cell-based, mouse. As to conditions: 72 hours, CellTiter-Glo, read-out: Ba/F3 EGFR L858R_T790M_C797S IC50.
Source text: as §1, §2, §3, §4

For series [3], the target named is Ba/F3 EGFR Del19/C797S cells (Homo sapiens, UniProt P00533, C797S, cells depend on it, form not given). As to the kind of experiment: Cell proliferation inhibition (Cell Titer-Glo), Ba/F3 EGFR Del19/C797S. The settings on record: 72 hours, CellTiter-Glo, read-out: Ba/F3 EGFR Del19/C797S IC50. The series is classed as cell-based, mouse. Summed up:
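Ba/F3 lines carrying the EGFR mutants, grown in RPMI 1640 with 10% FBS, were seeded overnight then exposed to compound for 72 h at 37 °C, 5% CO2. Viability by CellTiter-Glo luminescence; IC50 from nonlinear regression of inhibition versus concentration.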

Series [4] can be described thus: Rat pharmacokinetic evaluation test. The series is classed as in vivo. As to conditions: Sprague-Dawley (SD), po, SD rats, male, p.o. 5 mg/kg, plasma. How it is done:
SD rats were used as test animals to study the pharmacokinetic behavior of the compounds of the present invention in the rat body (plasma) after oral administration at a dose of 5 mg/kg.
2.2 Experimental Animals: 3 SD Rats/Group, Male, from Shanghai Jiesijie Experimental Animal Co., Ltd., Animal Production License Number (SCXK (Shanghai) 2013-0006 No. 311620400001794).
• Oral administration drug preparation: 20% solutol HS15 in 0.5% MC (methylcellulose)
20 g of a Solutol HS15 solid and 0.5 g of a MC solid powder were weighed and dissolved in 80 mL of purified water, and the mixture was vortexed, mixed until uniform, and subjected to ultrasound treatment to obtain a clear solution of 20% solutol HS15 in 0.5% MC.
The example compound was weighed into a 20 mL glass bottle, the solution was added thereto and the mixture was subjected to ultrasound treatment for 10 minutes to obtain a clear solution with a concentration of 0.5 mg/mL.
3 male SD rats were administered p.o. respectively after the 3 male SD rats were fasted overnight; the p.o. dose was 5 mg/kg and the administration volume was 10 mL/kg.
Blood collection: Before and after administration to rats, 0.2 mL of blood was collected from the jugular vein at 0.25, 0.5, 1, 2, 4, 6, 8 and 24 h, and placed in an EDTA-K2 anticoagulation tube, which was centrifuged at 6000 rpm at 4° C. for 6 min to separate plasma which was stored at −80° C.; the rats were fed 4 h after administration.
1) 160 μL of acetonitrile was added to 40 μL of plasma sample for precipitation, mixed and centrifuged at 3500×g for 5 to 20 min.
2) the treated supernatant solution was taken and subjected to LC/MS/MS to analyze the concentrations of the test compounds. LC/MS/MS analysis instrument: AB Sciex API 4000 Qtrap.
• Liquid phase conditions: Shimadzu LC-20AD pump • Chromatographic column: Agilent ZORBAX XDB-C18 (50×2.1 mm, 3.5 μm) mobile phase: liquid A is 0.1% aqueous formic acid solution, liquid B is acetonitrile • Flow rate: 0.4 mL/min • Elution time: 0-4.0 min, the eluent is as follows:
The main pharmacokinetic parameters were calculated using WinNonlin 6.1.

Usually AUC(0-t) stands for the area under the concentration-time curve up to a stated or last time point. The low end stands for less exposure, the high end for more exposure. As a reminder, the Cmax is the peak of the concentration-time curve. A word on the half-life: it is the time in which the quantity being followed falls by half. A higher half-life goes with slow loss.

Sequence of Ba/F3 EGFR Del19/T790M/C797S cells (P00533 with tags, fused parts or gaps DEL746-750/T790M/C797S, form open): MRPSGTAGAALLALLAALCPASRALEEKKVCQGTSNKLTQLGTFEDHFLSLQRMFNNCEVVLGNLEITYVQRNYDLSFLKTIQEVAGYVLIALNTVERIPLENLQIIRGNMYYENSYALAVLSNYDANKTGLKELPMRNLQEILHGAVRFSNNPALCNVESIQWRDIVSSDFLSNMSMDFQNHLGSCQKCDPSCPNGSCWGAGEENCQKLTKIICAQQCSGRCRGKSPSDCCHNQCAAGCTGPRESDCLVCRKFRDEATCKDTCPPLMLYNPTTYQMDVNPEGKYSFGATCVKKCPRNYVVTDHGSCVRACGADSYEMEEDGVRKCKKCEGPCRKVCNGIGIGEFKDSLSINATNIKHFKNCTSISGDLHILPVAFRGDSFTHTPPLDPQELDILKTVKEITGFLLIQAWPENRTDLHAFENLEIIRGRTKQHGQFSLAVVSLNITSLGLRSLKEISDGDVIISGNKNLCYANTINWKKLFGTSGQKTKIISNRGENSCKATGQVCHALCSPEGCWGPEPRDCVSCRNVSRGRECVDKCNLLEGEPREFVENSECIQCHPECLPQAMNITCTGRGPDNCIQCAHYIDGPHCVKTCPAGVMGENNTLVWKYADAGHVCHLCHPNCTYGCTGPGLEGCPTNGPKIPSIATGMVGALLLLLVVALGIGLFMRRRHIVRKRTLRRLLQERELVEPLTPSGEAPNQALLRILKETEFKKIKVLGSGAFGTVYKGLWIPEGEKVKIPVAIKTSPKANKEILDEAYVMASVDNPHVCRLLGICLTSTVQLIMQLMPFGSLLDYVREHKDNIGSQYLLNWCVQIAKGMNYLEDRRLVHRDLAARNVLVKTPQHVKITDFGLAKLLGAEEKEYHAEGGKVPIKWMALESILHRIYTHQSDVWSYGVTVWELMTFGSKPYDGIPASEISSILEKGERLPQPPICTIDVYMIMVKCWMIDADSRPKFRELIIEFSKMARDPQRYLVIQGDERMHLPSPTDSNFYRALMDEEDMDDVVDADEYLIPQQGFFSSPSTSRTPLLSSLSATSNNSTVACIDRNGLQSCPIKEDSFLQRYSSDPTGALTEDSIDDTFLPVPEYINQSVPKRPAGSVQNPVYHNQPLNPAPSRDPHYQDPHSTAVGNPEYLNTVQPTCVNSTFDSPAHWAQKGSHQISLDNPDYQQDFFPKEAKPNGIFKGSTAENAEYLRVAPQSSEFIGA
Sequence of Ba/F3 EGFR Del19/C797S cells (P00533 with tags, fused parts or gaps DEL746-750/C797S, form open): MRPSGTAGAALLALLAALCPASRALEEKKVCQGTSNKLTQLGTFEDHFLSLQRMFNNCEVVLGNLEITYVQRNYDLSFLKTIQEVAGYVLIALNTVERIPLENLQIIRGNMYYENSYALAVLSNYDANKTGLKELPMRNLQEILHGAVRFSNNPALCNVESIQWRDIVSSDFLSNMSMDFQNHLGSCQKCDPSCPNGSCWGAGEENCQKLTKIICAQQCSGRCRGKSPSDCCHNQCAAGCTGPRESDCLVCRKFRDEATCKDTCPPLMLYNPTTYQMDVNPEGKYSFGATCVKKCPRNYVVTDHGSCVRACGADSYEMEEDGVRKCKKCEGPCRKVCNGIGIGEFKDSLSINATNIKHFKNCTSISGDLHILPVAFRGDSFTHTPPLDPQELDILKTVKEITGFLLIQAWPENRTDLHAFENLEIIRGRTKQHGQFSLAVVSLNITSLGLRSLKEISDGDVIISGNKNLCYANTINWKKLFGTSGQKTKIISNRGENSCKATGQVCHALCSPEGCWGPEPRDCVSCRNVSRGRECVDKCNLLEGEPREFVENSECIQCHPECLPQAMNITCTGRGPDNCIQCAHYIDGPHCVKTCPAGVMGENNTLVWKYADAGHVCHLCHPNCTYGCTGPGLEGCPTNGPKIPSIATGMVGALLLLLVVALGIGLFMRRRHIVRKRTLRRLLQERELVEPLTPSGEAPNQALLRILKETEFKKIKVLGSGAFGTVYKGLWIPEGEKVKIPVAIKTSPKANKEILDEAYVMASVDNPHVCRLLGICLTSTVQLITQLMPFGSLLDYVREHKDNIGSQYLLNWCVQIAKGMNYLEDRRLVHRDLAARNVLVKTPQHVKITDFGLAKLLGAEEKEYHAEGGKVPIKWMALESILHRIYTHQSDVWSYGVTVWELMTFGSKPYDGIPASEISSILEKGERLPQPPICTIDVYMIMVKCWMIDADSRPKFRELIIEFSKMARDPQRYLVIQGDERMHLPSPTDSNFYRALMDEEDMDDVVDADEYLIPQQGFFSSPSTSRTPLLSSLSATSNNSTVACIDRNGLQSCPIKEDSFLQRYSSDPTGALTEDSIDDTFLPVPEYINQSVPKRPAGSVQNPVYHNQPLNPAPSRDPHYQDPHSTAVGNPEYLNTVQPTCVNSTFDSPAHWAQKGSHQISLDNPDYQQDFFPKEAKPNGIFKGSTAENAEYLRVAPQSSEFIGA
Sequence of Ba/F3 EGFR L858R/T790M/C797S cells (P00533 whole entry T790M/C797S/L858R): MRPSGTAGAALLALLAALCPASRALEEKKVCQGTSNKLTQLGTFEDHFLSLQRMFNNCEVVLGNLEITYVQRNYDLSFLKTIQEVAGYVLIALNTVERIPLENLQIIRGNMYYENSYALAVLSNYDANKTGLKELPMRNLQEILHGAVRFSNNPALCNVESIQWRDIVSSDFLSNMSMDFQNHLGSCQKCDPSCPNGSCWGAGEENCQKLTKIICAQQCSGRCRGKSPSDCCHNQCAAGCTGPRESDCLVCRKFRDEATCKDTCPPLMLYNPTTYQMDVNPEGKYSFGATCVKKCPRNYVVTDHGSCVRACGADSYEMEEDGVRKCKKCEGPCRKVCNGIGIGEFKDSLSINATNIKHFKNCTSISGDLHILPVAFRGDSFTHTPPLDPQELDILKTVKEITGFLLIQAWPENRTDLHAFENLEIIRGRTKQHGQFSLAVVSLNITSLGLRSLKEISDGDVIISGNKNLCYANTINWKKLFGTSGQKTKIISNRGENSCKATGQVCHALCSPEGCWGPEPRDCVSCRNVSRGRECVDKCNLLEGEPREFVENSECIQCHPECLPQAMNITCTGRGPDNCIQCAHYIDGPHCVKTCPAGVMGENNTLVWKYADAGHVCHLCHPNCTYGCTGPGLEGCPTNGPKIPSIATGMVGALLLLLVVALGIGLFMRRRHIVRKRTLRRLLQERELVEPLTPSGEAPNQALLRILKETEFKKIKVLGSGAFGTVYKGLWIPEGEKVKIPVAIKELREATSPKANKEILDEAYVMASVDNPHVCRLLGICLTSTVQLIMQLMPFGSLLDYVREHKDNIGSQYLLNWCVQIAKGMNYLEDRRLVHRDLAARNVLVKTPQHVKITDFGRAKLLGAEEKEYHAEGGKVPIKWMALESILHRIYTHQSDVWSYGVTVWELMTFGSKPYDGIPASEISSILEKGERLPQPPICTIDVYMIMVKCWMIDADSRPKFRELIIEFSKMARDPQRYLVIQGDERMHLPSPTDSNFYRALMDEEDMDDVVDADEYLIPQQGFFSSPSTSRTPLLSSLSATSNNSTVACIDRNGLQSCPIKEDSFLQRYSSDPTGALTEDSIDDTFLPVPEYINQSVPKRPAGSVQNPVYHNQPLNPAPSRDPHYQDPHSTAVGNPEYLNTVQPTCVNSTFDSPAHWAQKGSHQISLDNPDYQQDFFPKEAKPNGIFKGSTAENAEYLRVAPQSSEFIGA

In the case of `CC(C)c1ccc(N2C[C@H](CS(C)(=O)=O)[C@H]2C)c2cnc(Nc3ccnc(-c4cn(C)nc4Cl)n3)cc12` [Example 5, N-(2-(3-chloro-1-methyl-1H-pyrazol-4-yl)pyrimidin-4-yl)-5-isopropyl-8-((2R,3S)-2-methyl-3-((methanesulfonyl)methyl)azabut-1-yl)isoquinolin-3-amine], the GI50 in series [1] was found to be 3.7 nM. Further, in series [2], the GI50 was 11 nM. Further, the GI50 in series [3] turned out to be 5.1 nM. In addition, in series [4], the AUC(0-t) stood at 1260 ng·h/mL, the concentration peaked (Cmax) at 239 ng/mL and the half-life is 4.1 h.
`CC(C)c1ccc(N2C[C@H](N(C)S(C)(=O)=O)[C@H]2C)c2cnc(Nc3ccnc(-c4cn(C)nc4Cl)n3)cc12` [Example 122, N-((2R,3S)-1-(3-((2-(3-chloro-1-methyl-1H-pyrazol-4-yl)pyrimidin-4-yl)amino)-5-isopropylisoquinolin-8-yl)-2-methylazetidin-3-yl)-N-methyl methanesulfonamide]: the GI50 in series [1] was 2.9 nM. Also, the GI50 in series [2] worked out at 8.2 nM. For the same compound, the GI50 in series [3] amounted to 5.1 nM. Further, in series [4], the AUC(0-t) is 1260 ng·h/mL, the highest level (Cmax) was 97 ng/mL and the half-life is 3.5 h.
`CC(C)c1ccc(N2C[C@H](NS(C)(=O)=O)[C@H]2C)c2cnc(Nc3ccnc(-c4cn(C)nc4Cl)n3)cc12` [Example 123, N-((2R,3S)-1-(3-((2-(3-chloro-1-methyl-1H-pyrazol-4-yl)pyrimidin-4-yl)amino)-5-isopropylisoquinolin-8-yl)-2-methylazetidin-3-yl)methanesulfonamide]: the GI50 amounted to 3.3 nM in series [1], 13 nM in series [2] and 6.5 nM in series [3].
In the case of `Cc1nn(C)cc1-c1nccc(Nc2cc3c(C(C)C)ccc(N4C[C@H](N(C)S(C)(=O)=O)[C@H]4C)c3cn2)n1` [Example 126, N-((2R,3S)-1-(3-((2-(1,3-dimethyl-1H-pyrazol-4-yl)pyrimidin-4-yl)amino)-5-isopropylisoquinolin-8-yl)-2-methylazetidin-3-yl)-N-methyl methanesulfonamide], the GI50 in series [1] is 2.1 nM; in series [2] it was 7.5 nM; in series [3] it was 3 nM. Moreover, the AUC(0-t) in series [4] is 3140 ng·h/mL. In series [4], this compound displayed a Cmax of 240 ng/mL. The compound also gave a half-life in series [4] of 3.3 h.
On to `CC(C)c1cnc(N2C[C@H](CS(C)(=O)=O)[C@H]2C)c2cnc(Nc3ccnc(-c4cn(C)nc4Cl)n3)cc12` [Example 132, N-(2-(3-chloro-1-methyl-1H-pyrazol-4-yl)pyrimidin-4-yl)-5-isopropyl-8-((2R,3S)-2-methyl-3-((methanesulfonyl)methyl)azetidin-1-yl)-2,7-diazanaphthalen-3-amine], for which the GI50 in series [1] was found to be 5.6 nM. Besides, the GI50 in series [2] was found to be 15 nM. Besides, the GI50 in series [3] was 6.4 nM. Further, in series [4], the AUC(0-t) worked out at 1570 ng·h/mL, the Cmax is 180 ng/mL and the half-life is 3 h.
In the case of `CC(C)c1c(F)cc(N2C[C@H](NS(C)(=O)=O)[C@H]2C)c2cnc(Nc3ccnc(-c4cn(C)nc4Cl)n3)cc12` [Example 186, N-((2R,3S)-1-(3-((2-(3-chloro-1-methyl-1H-pyrazol-4-yl)pyrimidin-4-yl)amino)-6-fluoro-5-isopropylisoquinolin-8-yl)-2-methylazetidin-3-yl)methanesulfonamide], the GI50 was 5.9 nM in series [1], 8.8 nM in series [2] and 2.6 nM in series [3].
